Source: PubChem BioAssay (NCI)
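Values below derive from 48-hour exposures of cells grown in 96-well plates, with endpoints linearly interpolated between the two concentrations bracketing the appropriate inhibition level. The concentration for full growth arrest is given as TGI.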

Columns and labels:
Assay in all cases: inhibition of tumour cell growth, NCI panel, 48 h
[1] = test system: NCI-H460 lung
[2] = test system: HOP-62 NSCLC
[3] = test system: MDA-MB-435
[4] = test system: SF-268 CNS
[5] = test system: SF-539 CNS
[6] = test system: XF 498 CNS
[7] = test system: NCI-H522 lung
[8] = test system: CAKI-1 renal
[9] = test system: SK-MEL-5 melanoma
[10] = test system: KM12 colon
[11] = test system: OVCAR-3 ovarian
[12] = test system: SNB-19 CNS
[13] = test system: EKVX NSCLC
[14] = test system: HCT-15 colon
[15] = test system: NCI/ADR-RES ovarian
[16] = test system: K-562 leukemia
[17] = test system: UACC-257 melanoma
[18] = test system: ACHN renal
[19] = test system: OVCAR-4 ovarian
[20] = test system: OVCAR-8 ovarian
[21] = test system: SK-MEL-28 melanoma
[22] = test system: UO-31 renal
[23] = test system: LXFL 529 NSCLC
[24] = test system: COLO 205 colon
[25] = test system: MALME-3M melanoma
[26] = test system: UACC-62 melanoma
[27] = test system: MDA-MB-231 breast
[28] = test system: MCF7 breast
[29] = test system: SW-620 colon
[30] = test system: RXF 393 renal
[31] = test system: CCRF-CEM leukemia
[32] = test system: A549 NSCLC
[33] = test system: A498 renal
[34] = test system: BT-549 breast
[35] = test system: DMS 273 small cell lung
[36] = test system: HOP-92 NSCLC
[37] = test system: MDA-N
[38] = test system: SNB-75 CNS
[39] = test system: NCI-H23 lung
[40] = test system: SK-OV-3 ovarian
[41] = test system: MOLT-4 leukemia
[42] = test system: HT29 colon
[43] = test system: KM20L2 colon
[44] = test system: TK-10 renal
[45] = test system: HCC-2998 colon
[46] = test system: OVCAR-5 ovarian
[47] = test system: IGROV1 ovarian
[48] = test system: HS 578T breast
[49] = test system: SF-295 CNS
[50] = test system: HCT-116 colon
[51] = test system: DU-145 prostate
[52] = test system: SNB-78 CNS
[53] = test system: LOX IMVI melanoma
[54] = test system: RPMI-8226 leukemia
[55] = test system: T-47D breast
[56] = test system: HL-60(TB) leukemia
[57] = test system: PC-3 prostate
[58] = test system: SR leukemia
[59] = test system: NCI-H226 lung
[60] = test system: SN12C renal
[61] = test system: SK-MEL-2 melanoma
[62] = test system: M14 melanoma
[63] = test system: U251 CNS
[64] = test system: 786-0 renal
[65] = test system: DMS 114 small cell lung
[66] = test system: M19-MEL melanoma

CN(C)C(=S)NC(=S)Nc1ccc2ccccc2c1
TGI [1]: 22.4 µM | TGI [2]: 46.2 µM | TGI [3]: 68 µM | TGI [4]: 47.3 µM | TGI [5]: 31.6 µM | TGI [6]: 33.3 µM | TGI [7]: 32 µM | TGI [8]: 65.3 µM | TGI [9]: 25 µM | TGI [10]: 37.6 µM | TGI [11]: 57.8 µM | TGI [12]: > 72.1 µM | TGI [13]: 51.1 µM | TGI [14]: 59.9 µM | TGI [15]: 59.6 µM | TGI [16]: 23.3 µM | TGI [17]: 24.2 µM | TGI [18]: > 83 µM | TGI [19]: > 100 µM | TGI [20]: 68.8 µM | TGI [21]: 40.3 µM | TGI [22]: 48 µM | TGI [23]: 21.9 µM | TGI [24]: 39 µM | TGI [25]: 35.1 µM | TGI [26]: 26.9 µM | TGI [27]: 48.1 µM | TGI [28]: 37.1 µM | TGI [29]: > 75.2 µM | TGI [30]: 65.8 µM | TGI [31]: 10.5 µM | TGI [32]: > 31.5 µM | TGI [33]: 48.3 µM | TGI [34]: 53.9 µM | TGI [35]: 14.1 µM | TGI [36]: 48.1 µM | TGI [37]: 42.1 µM | TGI [38]: 62.5 µM | TGI [39]: 43.9 µM | TGI [40]: 55.3 µM | TGI [41]: 34.4 µM | TGI [42]: 25.3 µM | TGI [43]: 23.7 µM | TGI [44]: > 89.4 µM | TGI [45]: 36.6 µM | TGI [46]: 60.1 µM | TGI [47]: 34.6 µM | TGI [48]: 97.8 µM | TGI [49]: 18.8 µM | TGI [50]: 27 µM | TGI [51]: 77.9 µM | TGI [52]: 77.5 µM | TGI [53]: 19.6 µM | TGI [54]: 45 µM | TGI [55]: 46 µM | TGI [56]: 51.7 µM | TGI [57]: 38.3 µM | TGI [58]: 35.8 µM | TGI [59]: 31.5 µM | TGI [60]: 31.9 µM | TGI [61]: 41.6 µM | TGI [62]: 50.4 µM | TGI [63]: > 46.9 µM | TGI [64]: > 64.8 µM

N#C/C(=C/c1cccc2ccccc12)C(=O)c1ccccc1
TGI [1]: 78.2 µM | TGI [2]: 41.1 µM | TGI [5]: 34.9 µM | TGI [6]: 39.3 µM | TGI [7]: 54.6 µM | TGI [8]: > 100 µM | TGI [9]: > 10 µM | TGI [10]: 43.2 µM | TGI [11]: > 100 µM | TGI [12]: 41.6 µM | TGI [13]: > 10 µM | TGI [14]: 39.3 µM | TGI [16]: > 10 µM | TGI [17]: > 10 µM | TGI [18]: > 10 µM | TGI [19]: > 100 µM | TGI [20]: > 100 µM | TGI [21]: 30 µM | TGI [22]: 35.9 µM | TGI [25]: 47.6 µM | TGI [26]: 38.4 µM | TGI [29]: 32 µM | TGI [31]: 39 µM | TGI [32]: > 10 µM | TGI [33]: 55.3 µM | TGI [65]: > 100 µM | TGI [39]: 32.2 µM | TGI [40]: > 100 µM | TGI [41]: 38.2 µM | TGI [42]: > 100 µM | TGI [43]: 37.1 µM | TGI [44]: > 100 µM | TGI [45]: 49.2 µM | TGI [46]: 50.1 µM | TGI [66]: 86.6 µM | TGI [47]: 54.8 µM | TGI [49]: 44.4 µM | TGI [50]: 34.4 µM | TGI [52]: > 100 µM | TGI [53]: 39.3 µM | TGI [54]: 69.6 µM | TGI [56]: 46.9 µM | TGI [58]: 88.3 µM | TGI [59]: 47.9 µM | TGI [60]: 85.6 µM | TGI [61]: 41.6 µM | TGI [62]: 30.6 µM | TGI [63]: 37.9 µM | TGI [64]: 30.3 µM
